# Data as given in patent US20180177753A1, “GLYCERYL 3-HYDROXYBUTYRATES FOR MIGRAINE SYMPTOM MANAGEMENT” (NeuroEnergy Ventures, Inc., priority 2016, published 2018).
# What was measured:
# Type in all cases: in vivo
# [1] = Self-administration at onset of prodromal visual disturbances in a subject with episodic migraines; settings: 60 kg female, 15 g orally within minutes of visual disturbances, 3 times a day for 4 days
# Excerpt: A 60 kg person presents with episodic migraines occurring one such headache occurring and then not again for a number of months. At each event, shortly before the headache begins, the subject has visual disturbances classic of migraine. The subject is requested to self-administer 15 grams of glyceryl tris(3-hydroxybutyrate) upon noticing the next time visual disturbance of this type appear and continue to do so 3 times a day for 4 days. The subject notices such symptoms, and ingests 15 g of glyceryl tris(3-hydroxybutyrate) within minutes of noticing the symptoms.
# [2] = Self-administration at migraine onset in subjects with chronic repetitive migraine; settings: 70 kg male, 20 g at migraine onset, 3 times a day for 35 days
# Excerpt: There is no known or suspect event triggering these events. The subject is instructed to self-administer 20 g of glyceryl tris(3-hydroxybutyrate) upon the onset of the migraine and to continue to self-administer at this dosage 3 times a day for 35 days.
# A 60 kg person presents with chronic repetitive migraine with a similar repetitive pattern to the subject of Examples 2 and 3. They are instructed to self-administer 15 g of glyceryl tris(3-hydroxybutyrate) upon the onset of the migraine, rather than the 20 g as in Examples 2 and 3, but otherwise to follow the regimen in Examples 2 and 3.
# [3] = Preventive administration before an expected migraine in a subject with chronic repetitive migraine; settings: 70 kg male of Example 2, 20 g 3 times a day, days 90 to 130, started about 5-6 days before expected onset
# Excerpt: The subject of Example 2 discontinues the administration after 35 days, is migraine free for two months and a further episode occurs and Example 2 is followed again, counting the start of this second migraine as day 1, except that after ceasing the administration on day 35, the subject begins administration again on day 90 (about 5-6 days before an expected onset of a further migraine based on this subject's history) and continues administration for an additional 40 days (that is for days 90 to 130).
smiles,measurement,setting,value
CC(O)CC(=O)OCC(COC(=O)CC(C)O)OC(=O)CC(C)O (stereo not shown) [glyceryl tris(3-hydroxybutyrate)],"duration of the headache that follows, versus past episodes",[1],lesser duration
same,"intensity of the headache that follows, versus past episodes",[1],lesser intensity
same,"duration of the usual initial migraine, versus past history",[2],shorter duration
same,"frequency of the repetitive migraines, versus past history",[2],further reduced in frequency
same,"intensity of the repetitive migraines, versus past history",[2],further reduced in frequency and intensity
same,"severity of the usual initial migraine, versus past history",[2],less severe
same,occurrence of the expected migraine (days 94-95) during the administration period,[3],no such migraine appears
